Measured values taken from US6855504B2, “In vivo high throughput toxicology screening method” (priority 1999, dated 2005).
Like-named read-outs stand apart in the source and are kept apart here.

Assays:
Format in all cases: in vivo
Rat = system: Rat
Protocol: (§1) Using standard protocols, including the ones described above for administration to flies, a variety of agents were administered at different doses to mice, rats and flies and the LD for each agent was compared.

Fly = system: Fly
Protocol: The chemical is dissolved in water at or near its saturation point. Serial dilutions of this stock solution are used to rehydrate instant fly media (Fisher Scientific). Specifically, one toxicity assay will comprise of instant fly media rehydrated with pure stock solution of a chemical, while another will be rehydrated with a 10% solution of the chemical (in water). This format will be used to generate data over a 4 to 5 log dose range for each chemical tested.
A known quantity of embryos, typically between 40-50, is used as the input. Specifically, 40 to 50 embryos are counted and placed in the receptacle that contains the media/chemical mixture to be tested. The embryos may be counted manually or by automation (e.g., liquid suspension of embryos flowing through a diode). The larva feed on the media/chemical mixture. All aspects of development from larva stage to adult must proceed normally in the presence of the chemical. The only food and water source available to the larva and flies contains the chemical. […] Specifically, Iron, Copper, and zinc have been selected. Sensitive and accurate kits are commercially available to analyze these chemicals down to a concentration of 1 part per million. This will assign quantitative analyses to determine variability between larva in a test receptacle and between larva in different receptacles.
The developing larva and pupa are examined for normal growth and development. Then the adult flies are analyzed for lethality, sterility, developmental defects, and life span alterations. Lethality is determined by dividing the number of adult flies that eclose by the total number of embryos that were placed in the receptacle. Sterility is examined for both males and females by crossing them to normal flies. […] Finally the flies are allowed to live the natural span of their life to determine whether an effect occurred to either shorten or lengthen the average lifespan of the fly.
as §1

fruit fly = assay: AntiToxicity screen: fly survival with toxins with and without EDTA; settings: yeast paste: None
Description: This binding can occur in vitro or in vivo. In vivo binding can lead to neutralizing the toxicity of heavy metals to animals.

Mouse = system: Mouse
Protocol: as §1

| SMILES | Rat (oral LD50 mg/ml) (Rat; oral) | Fly (oral LD50 mg/ml) (Fly; oral, chemical in fly media) | Mouse (oral LD50 mg/ml) (Mouse; oral) | further results |
| --- | --- | --- | --- | --- |
| CN(C)c1ccncc1 [4-dimethyl aminopyridine] | 250 mg/mL | .15 mg/mL | – | – |
| [Cu] [Copper] | – | – | – | % survival (fruit fly; fly food: 0.4 mM Copper): 50%; % survival (fruit fly; fly food: 1.1 mM Copper): 0% |
| N[C@@H](Cc1ccc(O)c(O)c1)C(=O)O [L-dopa] | 1780 mg/mL | .7 mg/mL | 2363 mg/mL | – |
| [Zn] [Zinc] | – | – | – | % survival (fruit fly; fly food: 2 mM Zinc): 50%; % survival (fruit fly; fly food: 6.0 mM Zinc): 0% |
| O=S1(=O)OC(c2cc(Br)c(O)c(Br)c2)(c2cc(Br)c(O)c(Br)c2)c2ccccc21 [bromophenol blue] | – | 10 mg/mL | – | – |
| [Cl][Cd][Cl] [cadmium chloride] | 88 mg/mL | .1 mg/mL | 60 mg/mL | – |
| Clc1cccc(Cl)c1N=C1NCCN1 [clonidine] | – | – | – | Rat (oral LD50 mg/ml) (Rat; in vivo, po): 126 mg/mL; Mouse (oral LD50 mg/ml) (Mouse; in vivo, po): 135 mg/mL; Fly (oral LD50 mg/ml) (Fly; in vivo, po): .07 mg/mL |
| [Cl-].[Li+] [lithium chloride] | 526 mg/mL | .4 mg/mL | 1165 mg/mL | – |
| COP(=O)(OC)C(O)C(Cl)(Cl)Cl (stereo not shown) [metrifonate] | 560 mg/mL | .04 mg/mL | 300 mg/mL | toxicity category in rats (Rat; rats, oral LD50 category): moderate toxicity; toxicity category in mice (Mouse; mice, oral LD50 category): moderate toxicity; toxicity category in flies (Fly; flies, oral LD50 category): high toxic range |
| NC(=O)c1cccnc1 [niacinamide] | – | – | – | Rat (oral LD50 mg/ml) (Rat; in vivo, po): 3500 mg/mL; Mouse (oral LD50 mg/ml) (Mouse; in vivo, po): 2500 mg/mL; Fly (oral LD50 mg/ml) (Fly; in vivo, po): 5 mg/mL |
| Nc1ccccc1N [phenylenediamine] | 510 mg/mL | .2 mg/mL | 366 mg/mL | – |
| [N-]=[N+]=[N-] [sodium azide] | 27 mg/mL | .05 mg/mL | 27 mg/mL | – |
| O.O.O.O.O.O.O.O.O.O.[Na+].[Na+].[O-]B1OB2OB([O-])OB(O1)O2 [sodium borate] | 2660 mg/mL | 6.5 mg/mL | 2000 mg/mL | – |
